This is an account of results in PMC12686966, “Da‐Bu‐Yin‐Wan and Qian‐Zheng‐San Alleviate Parkinson's Disease by Activating the Keap1/Nrf2/HO‐1 Pathway to Positively Regulate Oxidative Stress” (CNS Neuroscience & Therapeutics, 2025).

Data set [1] can be described thus: Pharmacokinetic study of 10 major BYQZF components in plasma (UPLC-MS/MS). To be noted: for MRT last: MRT(0-t); for pharmacokinetics in MPTP + BYQZF group compared with BYQZF without MPTP group: p < 0.05.
Procedure: (§1) 6‐week‐old male C57BL/6J mice (20 ± 2 g; n = 6 per group) were orally administered the herbal decoction (BYQZF) at a dose of 5 g crude drug/kg. The administration volume was 10 mL/kg, and the concentration of the drug solution was 0.5 g/mL. Plasma samples were collected on day 14 after 14 consecutive days of drug administration. […] The supernatant samples were collected after centrifugation (5000 rpm, 10 min) and stored at −80°C immediately until analysis.
(§2) Each 100 μL plasma aliquot obtained at predetermined intervals was supplemented with 5 μL of internal standard solution (IS, 1 μg/mL) and 10 μL enzymatic hydrolysis cocktail (β‐glucuronidase/sulfatase mixture: 200 U/2 U enzymatic activity). The mixture underwent vortex mixing followed by 1‐h enzymatic digestion at physiological temperature (37°C). Subsequent protein precipitation was achieved through methanol addition (300 μL) with vigorous shaking. After phase separation by centrifugation (5000 rpm, 5 min), the organic supernatant was carefully decanted and subjected to nitrogen‐stream evaporation until completely dry. The residue was then reconstituted in 100 μL of mobile phase consisting of aqueous 0.1% FA‐ACN (v:v = 95:5) using ultrasonic‐assisted dissolution. Prior to UPLC‐MS/MS analysis, the final solution underwent high‐speed clarification centrifugation (13,000 rpm, 10 min) to remove particulate matter. The drug concentration‐time profiles were constructed, and pharmacokinetic parameters were analyzed using DAS 3.2.8 software.
For data set [2] the following is noted: mouse, in vivo, po.
Procedure: as §1, §2
Data set [3] relates to Nrf2/GPX4 pathway. Also noted: method as in PMID 39631720, PMID 27632381. To be noted: PD models ref 40, 41; cited from earlier work.
Data set [4] deals with Nrf2/HO-1 pathway. On the set-up: method as in PMID 27535021. The following applies: hydrogen peroxide-induced oxidative stress ref 37; cited from earlier work.
Data set [5] relates to SH-SY5Y cells. Put plainly: Annexin V-PE apoptosis detection (flow cytometry) in MPP+-treated SH-SY5Y cells. The format is cell-based, human. The following applies: Control siRNA; 1 mM MPP+ alone or followed by 4 μg/mL BYQZF 48 h; control cells 1.65%. Here is the method: The experiment used the human neuroblastoma SH‐SY5Y cell line to construct a stable transfected cell line. Cells were grown in a 1:1 MEM/F12 medium blend with added 15% fetal bovine serum for nutritional support. To avoid bacterial contamination, 500 IU/mL of penicillin and 500 μg/mL of streptomycin were incorporated. Cells were cultured at 37°C with 5% CO2 to maintain a pH of 7.2–7.4. The cell passage ratio was 1:2 to 1:4, and medium was replaced every 48–72 h to maintain the cells in the logarithmic growth phase. Routine testing confirmed that the cells were free from mycoplasma, bacterial, and fungal contamination. For cell freezing, a cryopreservation solution consisting of 60% base medium, 30% FBS, and 10% DMSO was used, and cells were stored in liquid nitrogen for long‐term preservation. The human Nrf2 knockdown plasmid, crafted by GeneChem, was used to transfect SH‐SY5Y cells seeded at a concentration of 100,000 cells per milliliter, utilizing the optimal amount of Lipofectamine 3000 (Invitrogen) in accordance with the protocol. 48 h subsequent to transfection, cells were exposed to 1 mM MPP^+ in the culture environment, and subsequently treated with 4 μg/mL BYQZF for another 48 h.
Background: A flow cytometer gives signals particle by particle.

On the set-up of data set [6]: method as in PMID 28163115. The following applies: cited from earlier work.
Setting [7] is: male, C57BL/6J, mouse, plasma, po, 5 g/kg, AUC(0-t), plasma, oral BYQZF 5 g crude drug/kg, group BYQZF (without MPTP), n=6.
The mark [8] stands for this setting: male, C57BL/6J, mouse, plasma, po, 5 g/kg, AUC(0-t), plasma, oral BYQZF 5 g crude drug/kg, group MPTP+BYQZF (PD model mice), n=6.
The mark [9] stands for this setting: male, C57BL/6J, mouse, plasma, po, 5 g/kg, Cmax, plasma, oral BYQZF 5 g crude drug/kg, group BYQZF (without MPTP), n=6.
Setting [10] is: male, C57BL/6J, mouse, plasma, po, 5 g/kg, Cmax, plasma, oral BYQZF 5 g crude drug/kg, group MPTP+BYQZF (PD model mice), n=6.
Where [11] appears, read: male, C57BL/6J, mouse, plasma, po, 5 g/kg, plasma, oral BYQZF 5 g crude drug/kg, group BYQZF (without MPTP), n=6.
[12] abbreviates: male, C57BL/6J, mouse, plasma, po, 5 g/kg, plasma, oral BYQZF 5 g crude drug/kg, group MPTP+BYQZF (PD model mice), n=6.
Setting [13] is: plasma, oral BYQZF 5 g crude drug/kg, group BYQZF (without MPTP), n=6.
Where [14] appears, read: plasma, oral BYQZF 5 g crude drug/kg, group MPTP+BYQZF (PD model mice), n=6.

Where a name gives a salt, the structure may show the parent alone. Read-outs that look alike come from different tables or passages of the source.

What is called AUC(0-t) is exposure summed from dosing to a finite time, without extrapolation to infinity. A low value points to less exposure. Broadly, the Cmax is the maximum level reached in the sampled fluid or tissue. A word on the MRT last: it is the average time that molecules of a dose stay in the body. As to `O=c1c(O)c(-c2ccccc2)oc2ccccc12` [3-Hydroxyflavone], the AUC(0-t) in data set [1] (setting [7]) is 0.401 ± 0.0765 ng·h/mL; in data set [1] (setting [8]), 0.341 ± 0.0517 ng·h/mL. Also, the Cmax in data set [1] (setting [9]) turned out to be 0.105 ± 0.0146 ng/mL; in data set [1] (setting [10]), 0.0291 ± 0.00788 ng/mL. Also, the MRT last came out at 5.17 ± 3.67 h in data set [1] (setting [11]) and 13 ± 1.72 h in data set [1] (setting [12]). Also, the “pharmacokinetics in MPTP + BYQZF group compared with BYQZF without MPTP group” value in data set [1] (oral BYQZF 5 g crude drug/kg) is “significantly different”.

Regarding `C[C@H]1[C@H]2[C@H](O[C@@H]3O[C@H](CO)[C@@H](O)[C@H](O)[C@H]3O)OC=C(C(=O)O)[C@H]2C[C@@H]1O` [8-Epiloganic acid], the “pharmacokinetics in MPTP + BYQZF group compared with BYQZF without MPTP group” value in data set [2] is “significantly different”.

On to `C[C@@H]1O[C@@H](O[C@@H]2[C@@H](O)[C@H](OCCc3ccc(O)c(O)c3)O[C@H](CO)[C@H]2OC(=O)/C=C/c2ccc(O)c(O)c2)[C@H](O)[C@H](O)[C@H]1O` [Acteoside], for which the Nrf2/GPX4 pathway entry in data set [3] is recorded as “activate”.

For `COc1ccc2cc3[n+](cc2c1OC)CCc1cc2c(cc1-3)OCO2` [Berberine hydrochloride], in data set [4], the Nrf2/HO-1 pathway result is “can activate”.

Turning to `O=c1c(O[C@@H]2O[C@H](CO)[C@H](O)[C@H](O)[C@H]2O)c(-c2ccc(O)c(O)c2)oc2cc(O)cc(O)c12` [Hyperin], the “pharmacokinetics in MPTP + BYQZF group compared with BYQZF without MPTP group” value in data set [1] (oral BYQZF 5 g crude drug/kg) is “significantly different”. In data set [1] (setting [13]), the “AUC(0-t)” value amounted to 0.24678 ± 0.01186 ng·h/mL, the Cmax came to 0.03885 ± 0.01016 ng/mL and the “MRT(0-t)” value came out at 10.94 ± 0.64 h. Also, in data set [1] (setting [14]), the exposure AUC(0-t) amounted to 0.17287 ± 0.02918 ng·h/mL, the Cmax was found to be 0.01989 ± 0.00355 ng/mL and the “MRT(0-t)” value is 12.22 ± 2.29 h.

As for `O[C@H]1[C@H](O)[C@@H](O)[C@H](O)[C@@H](O)[C@H]1O` [Inositol], the AUC(0-t) was found to be 0.32 ± 0.0658 ng·h/mL in data set [1] (setting [7]) and 0.0615 ± 0.0127 ng·h/mL in data set [1] (setting [8]). The Cmax worked out at 0.0582 ± 0.0147 ng/mL in data set [1] (setting [9]) and 0.0239 ± 0.00194 ng/mL in data set [1] (setting [10]). Further, the MRT last is 2.81 ± 0.27 h in data set [1] (setting [11]) and 11.2 ± 1.23 h in data set [1] (setting [12]).

As for `C[C@@H]1O[C@@H](O[C@@H]2[C@@H](O)[C@H](OCCc3ccc(O)c(O)c3)O[C@H](COC(=O)/C=C/c3ccc(O)c(O)c3)[C@H]2O)[C@H](O)[C@H](O)[C@H]1O` [Isoacteoside], the values for the area under the curve AUC(0-t) in data set [1] (setting [7]) and in data set [1] (setting [8]) were 2.8 ± 0.138 ng·h/mL and 2.18 ± 0.31 ng·h/mL, respectively. Besides, the Cmax came out at 0.248 ± 0.0148 ng/mL in data set [1] (setting [9]) and 0.185 ± 0.00514 ng/mL in data set [1] (setting [10]). The MRT last is 7.9 ± 0.47 h in data set [1] (setting [11]) and 8.87 ± 0.83 h in data set [1] (setting [12]). Further, the “pharmacokinetics in MPTP + BYQZF group compared with BYQZF without MPTP group” value in data set [1] (oral BYQZF 5 g crude drug/kg) was “significantly different”.

In the case of `N[C@@H](CCC(=O)O)C(=O)O` [L-Glutamic acid], the Cmax was found to be 0.0514 ± 0.00766 ng/mL in data set [1] (male, C57BL/6J, mouse, in vivo, po, 5 g/kg) and 0.0146 ± 0.00047 ng/mL in data set [1] (male, C57BL/6J, mouse, plasma, po, 5 g/kg). Also, the AUC(0-t) in data set [1] (setting [7]) is 0.102 ± 0.0119 ng·h/mL; in data set [1] (setting [8]), 0.0832 ± 0.0112 ng·h/mL. The mean residence time MRT last in data set [1] (setting [11]) is 4.47 ± 1.61 h; in data set [1] (setting [12]), 4.55 ± 1.19 h.

As for `N[C@@H](CC(=O)N[C@@H](CC(=O)O)C(=O)O)C(=O)O` [L-beta-aspartyl-L-aspartic acid], in data set [1] (oral BYQZF 5 g crude drug/kg), the “pharmacokinetics in MPTP + BYQZF group compared with BYQZF without MPTP group” value is on record as “significantly different”. Besides, in data set [1] (setting [13]), the area under the curve AUC(0-t) stood at 0.01864 ± 0.00096 ng·h/mL, the Cmax was 0.02274 ± 0.00024 ng/mL and the “MRT(0-t)” value came out at 2.02 ± 2.07 h. In data set [1] (setting [14]), the “AUC(0-t)” value amounted to 0.01424 ± 0.0026 ng·h/mL, the Cmax was 0.00887 ± 0.00191 ng/mL and the “MRT(0-t)” value was determined as 2.13 ± 1.32 h.

`C[n+]1ccc(-c2ccccc2)cc1` [MPP^+, 1‐Methyl‐4‐phenylpyridinium]: the “proportion of apoptotic cells” value in data set [5] is recorded as 7.95%.

As to `O=c1c2cc(O)c(O)cc2oc2cc(O)c([C@@H]3O[C@H](CO)[C@@H](O)[C@H](O)[C@H]3O)c(O)c12` [Mangiferol], the “pharmacokinetics in MPTP + BYQZF group compared with BYQZF without MPTP group” value in data set [2] is “significantly different”.

In the case of `OCC1=C[C@@H](O)[C@]2(O[C@@H]3O[C@H](CO)[C@@H](O)[C@H](O)[C@H]3O[C@@H]3O[C@H](CO)[C@@H](O)[C@H](O)[C@H]3O)C=CO[C@@H](O[C@@H]3O[C@H](CO)[C@@H](O)[C@H](O)[C@H]3O)[C@H]12` [Rehmannioside D], the “spontaneous oxidation of endogenous dopamine” value in data set [6] was “inhibit”.

In the case of `O=c1cc[nH]c(=O)[nH]1` [Uracil], the AUC(0-t) in data set [1] (setting [7]) worked out at 0.413 ± 0.0753 ng·h/mL; in data set [1] (setting [8]), 0.166 ± 0.0638 ng·h/mL. Also, the Cmax stood at 0.23 ± 0.0219 ng/mL in data set [1] (setting [9]) and 0.0395 ± 0.00762 ng/mL in data set [1] (setting [10]). Moreover, the MRT last in data set [1] (setting [11]) is 2.01 ± 1.68 h; in data set [1] (setting [12]) it was 2.89 ± 0.17 h.

As to Manninotriose, the “pharmacokinetics in MPTP + BYQZF group compared with BYQZF without MPTP group” value in data set [2] is “significantly different”.
